In US8318764B2, “Macrocyclic inhibitors of JAK” (Roche Palo Alto LLC, priority 2009, dated 2012):

Molecular target: T1, JAK3: Recombinant human kinase domain (810-1124) (Homo sapiens, UniProt P52333)
T1 construct: Recombinant human kinase domain (810-1124); made in house
Experiment: Determination of IC50 of Janus Kinase (JAK) inhibition, radioactive 33P-ATP end-point assay, JAK3
Type: biochemical
Conditions: 0.1 nM JAK3, ATP 1.5 uM, peptide 50 uM, 20 minutes, room temperature; read-out: JAK3 Enzyme IC50
Procedure: Determination of IC50 of Janus Kinase (JAK) inhibition:
Enzymes and peptide substrate used are described below:
JAK3: Recombinant human kinase domain (810-1124) made in house by Roche Palo Alto
Substrate: N-terminally biotinylated 14-mer peptide derived from activation loop of JAK1 with sequence of the peptide substrate: Biotin-KAIETDKEYYTVKD
Assay conditions used are described below:
Assay Buffer: JAK Kinase Buffer: 50 mM Hepes [pH 7.2], 10 mM MgCl2, 1 mM DTT, 1 mg/ml BSA. The assay is carried out in this buffer.
Assay Format: The kinase activity of all three JAK kinases is measured using a radioactive, end-point assay and with trace amounts of ^33P-ATP. The assays are carried out in 96-well polypropylene plates.
All concentrations are final in the reaction mixture and all incubations are carried at room temperature. Assay steps are described below:
1) Compounds are serially diluted in 100% DMSO typically at a 10× starting concentration of 1 mM. Final concentration of DMSO in the reaction is 10%.
2) Compounds are preincubated with enzyme (0.1 nM JAK3, 1 nM JAK2, 5 nM JAK1) for 10 minutes.
3) Reactions are initiated by the addition of a cocktail of the two substrates (ATP and peptide premixed in the JAK Kinase Buffer). In the JAK1/JAK2/JAK3 assays, ATP and the peptide are used at concentrations of 1.5 uM and 50 uM, respectively. The duration of the assay for JAK2 and JAK3 is 20 minutes. JAK1 assay is carried out for 45 minutes. With all three enzymes, reactions are terminated by the addition of 0.5M EDTA to a final concentration of 100 mM. 4) 25 ul of terminated reactions are transferred to 150 ul of a 7.5% (v/v) slurry of streptavidin-coated sepharose beads in MgCl2- and CaCl2-free 1× Phosphate Buffered Saline containing 50 mM of EDTA in 96-well, 1.2 um MultiScreen-BV filter plates. 5) After a 30-minute incubation, the beads are washed under vacuum with the following buffers:
a. 3 to 4 washes with 200 ul of 2M NaCl.
b. 3 to 4 washes with 200 ul of 2M NaCl plus 1% (v/v) phosphoric acid.
6) Washed plates are dried in a 60° C. oven for between 1 to 2 hours.
7) 70 ul of Microscint 20 scintillation fluid is added to each well of filter plates and after at least 30 minutes of incubation, radioactive counts are measured in a Perkin Elmer microplate scintillation counter.

T1 sequence (P52333 810-1124): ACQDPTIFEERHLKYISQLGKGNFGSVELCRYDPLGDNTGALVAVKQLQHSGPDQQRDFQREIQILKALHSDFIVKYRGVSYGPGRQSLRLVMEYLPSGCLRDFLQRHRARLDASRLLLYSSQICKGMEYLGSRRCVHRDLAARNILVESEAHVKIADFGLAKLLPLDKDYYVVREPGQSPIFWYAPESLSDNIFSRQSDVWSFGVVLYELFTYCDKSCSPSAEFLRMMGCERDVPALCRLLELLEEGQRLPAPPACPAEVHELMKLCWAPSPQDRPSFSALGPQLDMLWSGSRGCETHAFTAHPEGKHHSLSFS

Structure (SMILES)	IC50 [nM]
O=C1N2Cc3[nH]nc(c3C2)Nc2cccc(n2)CCCCCC12CCCCC2 [Compound I-14]	4210
O=C1N2Cc3[nH]nc(c3C2)Nc2cccc(n2)CCCCCC12CCCC2 [Compound I-15]	444
CC12CCN(CCCc3cccc(n3)Nc3n[nH]c4c3CN(C4)C1=O)C2 (centres unmarked) [Compound I-13]	92.8
CC12CCN(CCCCc3cccc(n3)Nc3n[nH]c4c3CN(C4)C1=O)C2 (centres unmarked) [Compound I-12]	42.6
CC1(C)CCCCCOc2cccc(n2)Nc2n[nH]c3c2CN(C3)C1=O [Compound I-10]	343
CC1(C)CCCCc2cccc(n2)Nc2n[nH]c3c2CN(C3)C1=O [Compound I-7]	811
CC1(c2ccccc2)CCCCCc2cccc(n2)Nc2n[nH]c3c2CN(C3)C1=O (centres unmarked) [Compound I-16]	> 1000
CC1CCCCC(C)(C)C(=O)N2Cc3[nH]nc(c3C2)Nc2cccc1n2 (centres unmarked) [Compound I-2]	795
CC1(C)CCCCOc2cccc(n2)Nc2n[nH]c3c2CN(C3)C1=O [Compound I-8]	1040
O=C1N2Cc3[nH]nc(c3C2)Nc2cccc(n2)CCCCCC12CCOCC2 [Compound I-17]	> 1000
CCC1(C)CCCCCc2cccc(n2)Nc2n[nH]c3c2CN(C3)C1=O (centres unmarked) [Compound I-4]	280
CC1(C)CCCCCc2cccc(n2)Nc2n[nH]c3c2CN(C3)C1=O [Compound I-6]	502
CC1(C)CCCCCc2cc(ccn2)Nc2n[nH]c3c2CN(C3)C1=O [Compound I-3]	> 10000
CCC1(C)CCCCOc2cccc(n2)Nc2n[nH]c3c2CN(C3)C1=O (centres unmarked) [Compound I-5]	530
CC1(C)CCCOc2cccc(n2)Nc2n[nH]c3c2CN(C3)C1=O [Compound I-9]	> 3000
CC1CCc2cccc(n2)Nc2n[nH]c3c2CN(C3)C(=O)C(C)(C)CC1 (centres unmarked) [Compound I-11]	487
CCC1(C)CCCCCCc2cccc(n2)Nc2n[nH]c3c2CN(C3)C1=O (centres unmarked) [Compound I-1]	915
